{"source": "ChEMBL document CHEMBL1275550", "about": "“In vitro activity of doripenem, a carbapenem for the treatment of challenging infections caused by gram-negative bacteria, against recent clinical isolates from the United States” (2008)", "key": {"Enterobacteriaceae [1]": {"tested_on": "Enterobacteriaceae", "assay": "Antimicrobial activity against ceftazidime-susceptible Enterobacteriaceae assessed as susceptible isolate by broth microdilution method", "type": "functional"}, "Escherichia coli": {"tested_on": "Escherichia coli", "assay": "Antimicrobial activity against ESBL producing Escherichia coli by broth microdilution method", "type": "functional"}, "Pseudomonas aeruginosa [2]": {"tested_on": "Pseudomonas aeruginosa", "assay": "Antimicrobial activity against imipenem non-susceptible Pseudomonas aeruginosa assessed as intermediate isolate by broth microdilution method", "type": "functional"}, "Klebsiella pneumoniae [3]": {"tested_on": "Klebsiella pneumoniae", "assay": "Antimicrobial activity against ESBL producing Klebsiella pneumoniae assessed as susceptible isolate by broth microdilution method", "type": "functional"}, "Klebsiella pneumoniae [4]": {"tested_on": "Klebsiella pneumoniae", "assay": "Antimicrobial activity against ESBL producing Klebsiella pneumoniae by broth microdilution method", "type": "functional"}, "Proteus mirabilis [5]": {"tested_on": "Proteus mirabilis", "assay": "Antimicrobial activity against Non-ESBL Proteus mirabilis by broth microdilution method", "type": "functional"}, "Citrobacter [6]": {"tested_on": "Citrobacter", "assay": "Antimicrobial activity against Citrobacter with nonderepressed AmpC beta-lactamsae assessed as susceptible isolate by broth microdilution method", "type": "functional"}, "Acinetobacter [7]": {"tested_on": "Acinetobacter", "assay": "Antimicrobial activity against imipenem non-susceptible Acinetobacter by broth microdilution method", "type": "functional"}, "Pseudomonas aeruginosa [8]": {"tested_on": "Pseudomonas aeruginosa", "assay": "Antimicrobial activity against Pseudomonas aeruginosa isolated from ICU patient assessed as susceptible isolate by broth microdilution method"}, "Serratia marcescens [9]": {"tested_on": "Serratia marcescens", "assay": "Antimicrobial activity against Ceftazidime susceptible Serratia marcescens assessed as intermediate isolate by broth microdilution method", "type": "functional"}, "Citrobacter [10]": {"tested_on": "Citrobacter", "assay": "Antimicrobial activity against Citrobacter with nonderepressed AmpC beta-lactamsae by broth microdilution method", "type": "functional"}, "Enterobacteriaceae [11]": {"tested_on": "Enterobacteriaceae", "assay": "Antimicrobial activity against Ceftazidime non-susceptible Enterobacteriaceae assessed as susceptible isolate by broth microdilution method", "type": "functional"}, "Pseudomonas aeruginosa [12]": {"tested_on": "Pseudomonas aeruginosa", "assay": "Antimicrobial activity against imipenem susceptible Pseudomonas aeruginosa assessed as resistant isolate by broth microdilution method", "type": "functional"}, "Klebsiella pneumoniae [13]": {"tested_on": "Klebsiella pneumoniae", "assay": "Antimicrobial activity against Non-ESBL Klebsiella pneumoniae by broth microdilution method", "type": "functional"}, "Serratia marcescens [14]": {"tested_on": "Serratia marcescens", "assay": "Antimicrobial activity against Ceftazidime non-susceptible Serratia marcescens assessed as susceptible isolate by broth microdilution method", "type": "functional"}, "Acinetobacter [15]": {"tested_on": "Acinetobacter", "assay": "Antimicrobial activity against imipenem non-susceptible Acinetobacter assessed as resistant isolate by broth microdilution method", "type": "functional"}, "Acinetobacter [16]": {"tested_on": "Acinetobacter", "assay": "Antimicrobial activity against imipenem susceptible Acinetobacter by broth microdilution method", "type": "functional"}, "Pseudomonas aeruginosa [17]": {"tested_on": "Pseudomonas aeruginosa", "assay": "Antimicrobial activity against Ceftazidime susceptible Pseudomonas aeruginosa assessed as resistant isolate by broth microdilution method", "type": "functional"}, "Proteus mirabilis [18]": {"tested_on": "Proteus mirabilis", "assay": "Antimicrobial activity against ESBL producing Proteus mirabilis assessed as intermediate isolate by broth microdilution method", "type": "functional"}, "Serratia marcescens [19]": {"tested_on": "Serratia marcescens", "assay": "Antimicrobial activity against Ceftazidime non-susceptible Serratia marcescens by broth microdilution method", "type": "functional"}, "Acinetobacter [20]": {"tested_on": "Acinetobacter", "assay": "Antimicrobial activity against imipenem non-susceptible Acinetobacter assessed as intermediate isolate by broth microdilution method", "type": "functional"}, "Pseudomonas aeruginosa [21]": {"tested_on": "Pseudomonas aeruginosa", "assay": "Antimicrobial activity against imipenem non-susceptible Pseudomonas aeruginosa assessed as resistant isolate by broth microdilution method", "type": "functional"}, "Pseudomonas aeruginosa [22]": {"tested_on": "Pseudomonas aeruginosa", "assay": "Antimicrobial activity against Ceftazidime non-susceptible Pseudomonas aeruginosa assessed as susceptible isolate by broth microdilution method", "type": "functional"}, "Acinetobacter [23]": {"tested_on": "Acinetobacter", "assay": "Antimicrobial activity against imipenem susceptible Acinetobacter assessed as intermediate isolate by broth microdilution method", "type": "functional"}, "Pseudomonas aeruginosa [24]": {"tested_on": "Pseudomonas aeruginosa", "assay": "Antimicrobial activity against Pseudomonas aeruginosa isolated from ICU patient assessed as intermediate isolate by broth microdilution method"}, "Pseudomonas aeruginosa [25]": {"tested_on": "Pseudomonas aeruginosa", "assay": "Antimicrobial activity against Ceftazidime non-susceptible Pseudomonas aeruginosa assessed as intermediate isolate by broth microdilution method", "type": "functional"}, "Citrobacter [26]": {"tested_on": "Citrobacter", "assay": "Antimicrobial activity against Citrobacter with nonderepressed AmpC beta-lactamsae assessed as intermediate isolate by broth microdilution method", "type": "functional"}, "Enterobacteriaceae [27]": {"tested_on": "Enterobacteriaceae", "assay": "Antimicrobial activity against ceftazidime-susceptible Enterobacteriaceae assessed as resistant isolate by broth microdilution method", "type": "functional"}, "Enterobacteriaceae [28]": {"tested_on": "Enterobacteriaceae", "assay": "Antimicrobial activity against ceftazidime-susceptible Enterobacteriaceae assessed as intermediate isolate by broth microdilution method", "type": "functional"}, "Citrobacter [29]": {"tested_on": "Citrobacter", "assay": "Antimicrobial activity against Citrobacter with derepressed AmpC beta-lactamsae by broth microdilution method", "type": "functional"}, "Pseudomonas aeruginosa [30]": {"tested_on": "Pseudomonas aeruginosa", "assay": "Antimicrobial activity against imipenem non-susceptible Pseudomonas aeruginosa by broth microdilution method", "type": "functional"}}, "data": [{"smiles": "CO/N=C(\\C(=O)N[C@@H]1C(=O)N2C(C(=O)[O-])=C(C[N+]3(C)CCCC3)CS[C@H]12)c1csc(N)n1", "values": [{"measurement": "Activity", "setting": "Enterobacteriaceae [1]", "result": 99.8, "unit": "%"}, {"measurement": "MIC50", "setting": "Escherichia coli", "result": 32, "unit": "µg/mL"}, {"measurement": "MIC90", "setting": "Escherichia coli", "result": "> 32", "unit": "µg/mL"}, {"measurement": "Activity", "setting": "Pseudomonas aeruginosa [2]", "result": 16.9, "unit": "%"}, {"measurement": "Activity", "setting": "Klebsiella pneumoniae [3]", "result": 68.2, "unit": "%"}, {"measurement": "MIC50", "setting": "Klebsiella pneumoniae [4]", "result": 8, "unit": "µg/mL"}, {"measurement": "MIC90", "setting": "Klebsiella pneumoniae [4]", "result": "> 32", "unit": "µg/mL"}, {"measurement": "MIC50", "setting": "Proteus mirabilis [5]", "result": 0.03, "unit": "µg/mL"}, {"measurement": "MIC90", "setting": "Proteus mirabilis [5]", "result": 0.06, "unit": "µg/mL"}, {"measurement": "Activity", "setting": "Citrobacter [6]", "result": 99.6, "unit": "%"}, {"measurement": "MIC50", "setting": "Acinetobacter [7]", "result": 32, "unit": "µg/mL"}, {"measurement": "MIC90", "setting": "Acinetobacter [7]", "result": "> 32", "unit": "µg/mL"}, {"measurement": "Activity", "setting": "Pseudomonas aeruginosa [8]", "result": 79.9, "unit": "%"}, {"measurement": "Activity", "setting": "Serratia marcescens [9]", "result": 0, "unit": "%"}, {"measurement": "MIC50", "setting": "Citrobacter [10]", "result": 0.03, "unit": "µg/mL"}, {"measurement": "MIC90", "setting": "Citrobacter [10]", "result": 0.06, "unit": "µg/mL"}, {"measurement": "Activity", "setting": "Enterobacteriaceae [11]", "result": 82.4, "unit": "%"}, {"measurement": "Activity", "setting": "Pseudomonas aeruginosa [12]", "result": 2.2, "unit": "%"}, {"measurement": "MIC50", "setting": "Klebsiella pneumoniae [13]", "result": 0.03, "unit": "µg/mL"}, {"measurement": "MIC90", "setting": "Klebsiella pneumoniae [13]", "result": 0.06, "unit": "µg/mL"}, {"measurement": "Activity", "setting": "Serratia marcescens [14]", "result": 80, "unit": "%"}, {"measurement": "Activity", "setting": "Acinetobacter [15]", "result": 64.7, "unit": "%"}, {"measurement": "MIC50", "setting": "Acinetobacter [16]", "result": 4, "unit": "µg/mL"}, {"measurement": "MIC90", "setting": "Acinetobacter [16]", "result": 32, "unit": "µg/mL"}, {"measurement": "Activity", "setting": "Pseudomonas aeruginosa [17]", "result": 1, "unit": "%"}, {"measurement": "Activity", "setting": "Proteus mirabilis [18]", "result": 0, "unit": "%"}, {"measurement": "MIC50", "setting": "Serratia marcescens [19]", "result": 4, "unit": "µg/mL"}, {"measurement": "MIC90", "setting": "Serratia marcescens [19]", "result": 16, "unit": "µg/mL"}, {"measurement": "Activity", "setting": "Acinetobacter [20]", "result": 33.3, "unit": "%"}, {"measurement": "Activity", "setting": "Pseudomonas aeruginosa [21]", "result": 10.6, "unit": "%"}, {"measurement": "Activity", "setting": "Pseudomonas aeruginosa [22]", "result": 25.5, "unit": "%"}, {"measurement": "Activity", "setting": "Acinetobacter [23]", "result": 11.8, "unit": "%"}, {"measurement": "Activity", "setting": "Pseudomonas aeruginosa [24]", "result": 13.7, "unit": "%"}, {"measurement": "Activity", "setting": "Pseudomonas aeruginosa [25]", "result": 48.2, "unit": "%"}, {"measurement": "Activity", "setting": "Citrobacter [26]", "result": 0.2, "unit": "%"}, {"measurement": "Activity", "setting": "Enterobacteriaceae [27]", "result": 0.1, "unit": "%"}, {"measurement": "Activity", "setting": "Enterobacteriaceae [28]", "result": 0, "unit": "%"}, {"measurement": "MIC50", "setting": "Citrobacter [29]", "result": 1, "unit": "µg/mL"}, {"measurement": "MIC90", "setting": "Citrobacter [29]", "result": 2, "unit": "µg/mL"}, {"measurement": "MIC50", "setting": "Pseudomonas aeruginosa [30]", "result": 8, "unit": "µg/mL"}, {"measurement": "MIC90", "setting": "Pseudomonas aeruginosa [30]", "result": 32, "unit": "µg/mL"}]}]}
